Consider 29 compounds from BindingDB's records for doi:10.7270/Q2QZ28D7 (Burnham Center For Chemical Genomics, 2009).

Molecules are shown by their SMILES. Where only a bound is given, the exact number is not on record here.

Sequence of his6-Siah1 (aa 81-282) (Q8IUQ4 whole entry, looked up, the tested form may be a part): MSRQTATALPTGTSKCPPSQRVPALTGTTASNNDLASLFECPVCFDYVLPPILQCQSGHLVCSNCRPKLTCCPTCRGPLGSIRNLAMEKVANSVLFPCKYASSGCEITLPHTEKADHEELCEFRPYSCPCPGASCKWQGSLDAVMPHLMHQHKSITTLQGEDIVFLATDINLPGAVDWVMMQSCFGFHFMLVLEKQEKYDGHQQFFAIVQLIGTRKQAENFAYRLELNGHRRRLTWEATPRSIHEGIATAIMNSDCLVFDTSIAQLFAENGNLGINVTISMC

One assay addresses his6-Siah1 (aa 81-282) (Homo sapiens, UniProt Q8IUQ4). Kind of assay: Siah-1 peptide-binding antagonists, primary screen, biochemical, fluorescence polarization, rhodamine-plectin, uHTS (AID 1817).
Settings: not given
On the technique in general: Polarisation of emitted light reports the rotation of a fluorescent probe.
What is called IC50 is the concentration needed to halve the response being measured. Low values mean higher potency, high ones lower potency. For the compound `C[N+]1(CCNC(=O)CN=O)CCCCC1`, the IC50 was over 200 µM.

For `CCOC(=O)C1(C)CC(=Nc2ccc(O)cc2)C(=O)N1c1ccc(O)cc1` (centres undefined), the IC50 was over 200 µM.

As to `CC1(C)Cc2c(sc(N=CN3CCCCCC3)c2C#N)C(C)(C)N1`, the half-inhibitory concentration (IC50) is over 200 µM.

Regarding `COc1cc(NS(=O)(=O)c2ccc(NC(=S)NC(=O)C=Cc3ccc(F)cc3)cc2)ncn1`, the IC50 was over 200 µM.

`CN1/C(=C\C=C\C2=[N+](C)c3ccc4ccccc4c3C2(C)C)C(C)(C)c2ccccc21` [1,1,3-trimethyl-2-[(E,3Z)-3-(1,3,3-trimethyl-2-indolylidene)prop-1-enyl]benzo[e]indol-3-ium;perchlorate]: the IC50 was over 200 µM.

Take `CN(Cc1c(C(=O)NN=Cc2ccc(F)cc2)nnn1-c1nonc1N)C1CCCCC1` [1-(4-amino-1,2,5-oxadiazol-3-yl)-5-[[cyclohexyl(methyl)amino]methyl]-N-[(4-fluorophenyl)methylideneamino]triazole-4-carboxamide]: the IC50 is over 200 µM.

As to `Fc1ccc(C=NNC(=S)Nc2cccnc2)cc1F` [1-[[3,4-bis(fluoranyl)phenyl]methylideneamino]-3-pyridin-3-yl-thiourea], the IC50 was over 200 µM.

In turn, `CCN(CC)CCOC(=O)c1ccc(N=CC(C#N)c2nc(-c3cc4ccccc4oc3=O)cs2)cc1` (centres undefined) [2-(diethylamino)ethyl 4-[[(Z)-2-cyano-2-[4-(2-oxochromen-3-yl)-1,3-thiazol-2-yl]ethenyl]amino]benzoate] returned an IC50 of 11.2 µM.

In turn, `CCOC(=O)C1=C(C)N=c2sc(=Cc3ccc(OCC(=O)O)cc3)c(=O)n2C1c1ccc(Cl)cc1` (centres undefined) [2-[4-[[5-(4-chlorophenyl)-6-ethoxycarbonyl-7-methyl-3-oxidanylidene-5H-[1,3]thiazolo[3,2-a]pyrimidin-2-ylidene]methyl]phenoxy]ethanoic acid] returned an IC50 of over 200 µM.

As for `CCN(CC)c1ccc(C=c2sc3nnc(-c4ccccc4Cl)n3c2=O)cc1` [3-(2-chlorophenyl)-6-[4-(diethylamino)benzylidene][1,3]thiazolo[2,3-c][1,2,4]triazol-5(6H)-one], the 50% inhibitory concentration (IC50) was over 200 µM.

In turn, `COC(=O)c1cccc(Cn2c(Cl)c(C=NNC(=O)c3ccccc3Cl)sc2=O)c1` [3-{4-Chloro-5-[(2-chloro-benzoyl)-hydrazonomethyl]-2-oxo-thiazol-3-ylmethyl}-benzoic acid methyl ester] had an IC50 of over 200 µM.

Regarding `O=C(Nc1ccc(Br)cc1)c1ccc(-n2c(O)c3c(c2O)CC=CC3)cc1` [4-[1,3-bis(oxidanylidene)-3a,4,7,7a-tetrahydroisoindol-2-yl]-N-(4-bromophenyl)benzamide], the IC50 was 18.6 µM.

With `CC(C)(C)c1cc(-c2cs/c(=N\c3ccccc3)n2Cc2ccc(C(=O)O)cc2)cc(C(C)(C)C)c1O` [4-[[4-(3,5-ditert-butyl-4-oxidanyl-phenyl)-2-phenylazanyl-1,3-thiazol-3-ium-3-yl]methyl]benzoic acid;bromide], the IC50 is over 200 µM.

Consider `O=C(NN=Cc1cccc(Br)c1)c1ccc(Br)cc1` [4-bromanyl-N-[(3-bromophenyl)methylideneamino]benzamide], for which the 50% inhibitory concentration (IC50) is over 200 µM.

Compound `COc1ccc(NC2=NC(=O)SC2=Cc2ccc(N(C)C)cc2)cc1` [(5Z)-5-[[4-(dimethylamino)phenyl]methylidene]-4-(4-methoxyanilino)-1,3-thiazol-2-one] came in with an IC50 of over 200 µM.

With `CCOC(=O)C(C#N)=c1sc(=C2C=Cc3ccccc3N2CC)c(=O)n1CC` [MLS000534135], the half-inhibitory concentration (IC50) is over 200 µM.

As for `O=C(NN=Cc1ccc(OC(=O)c2cccs2)cc1)c1cccc(F)c1` [MLS000576933], the IC50 is over 200 µM.

With `O=C(O)c1ccc(C=NNC(=O)c2ccc(CN3c4cccc5cccc(c45)S3(=O)=O)cc2)cc1` [MLS001003216], the IC50 was over 200 µM.

With `CC[n+]1c(/C=C/N(C)c2ccccc2)sc2ccc(Cl)cc21` [N-[(E)-2-(5-chloro-3-ethyl-1,3-benzothiazol-3-ium-2-yl)ethenyl]-N-methylaniline;perchlorate], the IC50 was over 200 µM.

In the case of `CCN(CC)c1ccc(C=NC(C#N)C(=N)C#N)cc1` (centres undefined) [SMR000023871], the IC50 is over 200 µM.

Turning to `Cc1ccc(S(=O)(=O)N[N-][C+]2C3CC4CC(C3)CC2C4)cc1[N+](=O)[O-]` [SMR000241699], the IC50 is over 200 µM.

On to `Cc1cc(C)nc(NN=C2C(=O)N(Cc3ccc(Cl)cc3)c3ccccc32)n1` [SMR000248022], for which the IC50 was over 200 µM.

Consider `C=c1c(C#N)c2[nH]c(N)c(C#N)c(C)c-2c1=Cc1ccc(-c2ccccc2C(=O)O)o1` [SMR000277284], for which the IC50 amounted to 20.6 µM.

For the compound `CCN(CC)CCOC(=O)c1ccc(N=CC(C#N)c2nc(-c3ccc(OC)c(OC)c3)cs2)cc1` (centres undefined) [SMR000434079], the IC50 came to 12.5 µM.

`COC(=O)c1cc(NC(=O)c2ccccc2)c(=O)oc1CC=Nc1ccc(Oc2ccccc2)cc1` [methyl 5-benzamido-6-oxidanylidene-2-[(E)-2-[(4-phenoxyphenyl)amino]ethenyl]pyran-3-carboxylate] came in with an IC50 of over 200 µM.

Still in this assay, the particulars now being: inactive by the depositor's call.
As for `CCCCNc1c2c3c(cccc3n(C)c1=O)C(=O)c1ccccc1-2` [1-Butylamino-3-methyl-3H-naphtho[1,2,3-de]quinoline-2,7-dione], the IC50 stood at 23.1 µM.

The compound `CC1(C)OC(C)(C)C(=CNc2ccc(O)cc2)C1=O` [4-[(4-hydroxyanilino)methylene]-2,2,5,5-tetramethyldihydro-3(2H)-furanone] gave an IC50 of 48.2 µM.

Biological target in another assay: not listed separately
Kind of assay: PubChem AID 1817.
Settings: not given
`CCN1C(=O)C(=CNc2ccc(N3CCOCC3)cc2)C(=O)N(CC)C1=S` gave an IC50 of 200 µM.

Consider `O=C1CCCC(=O)C1=NNc1ccc(C(=O)O)cc1` [SMR000370092], for which the concentration for half-maximal inhibition (IC50) amounted to 200 µM.
